Laboratory results as given in US20230097883A1, “ERGOTHIONEINE PET COMPOUNDS AND METHODS OF USE THEREOF” (VANDERBILT UNIVERSITY, priority 2021, published 2023).

Columns and labels:
oxidative stress [1] = assay: [11C]ERGO PET imaging of oxidative stress after ERGO treatment; assay type: in vivo, mouse; conditions: ERGO-treated versus non-treated 5XFAD mice, 20-min dynamic scan after IV injection
Procedure: To address our primary question whether longitudinal consumption of ERGO as a potent antioxidant benefit the brain, three cohorts of animals (n=12 non-treated WT control, n=12 non-treated 5XFAD, and n=18 ERGO-treated 5XFAD) were used (FIG. 3.2A). Starting at the age of 8 weeks, the animals were treated with high doses of ERGO solution (25-50 mg/Kg) formulated in double distilled (dd) water via oral gavage three times a week over the course of eight weeks. To reduce bias in the behavioral experiments with regard to the potential stress during gavage treatment, non-treated animals underwent the identical gavage process with the vehicle, water, only. The efficacy of the therapy was evaluated by behavioral testing, followed by three different non-invasive PET imaging sessions to assess biomarkers related to AD pathology. In addition to assessing Abeta levels and glucose metabolism using the [^11C]PIB and [^18F]FDG probes, respectively; we also tested for the first time whether oxidative stress could be used as an indicator of response to therapy using the [^11C]ERGO PET radioligand. Finally, animals were euthanized, and the brains were collected for immunohistochemical analysis.
Thus, in this study, [^11C]ERGO PET radioligand was used to assess the fluctuation in oxidative stress with respect to ERGO therapy. […]

IBA1-positive microglia = assay: IBA1 immunohistochemistry of brain sections after ERGO treatment; assay type: in vivo, mouse; conditions: ERGO-treated versus non-treated 5XFAD mice
Procedure: In this study, after the PET imaging, animals (non-treated 5XFAD (n=3) and ERGO-treated 5XFAD mice (n=5)) were perfused, and the brain sections were stained with antibodies against GFAP and IBA1 for neuroinflammatory markers astrocytes and microglia, respectively.
Quantitative analysis of the PET imaging and IHC data was performed using imageJ software. The data was imported to GraphPad Prism version 9 for Mac (GraphPad Software, San Diego, Calif., USA) for statistical analysis. Differences between groups were tested using unpaired t-test.

oxidative stress [2] = assay: Dynamic microPET uptake and retention of [11C]ERGO in brains of 5XFAD versus WT mice; assay type: in vivo, mouse; conditions: 10-month-old, n=4, 14.8 MBq in 0.1 mL via tail vein
Procedure: Dynamic uptake and retention of [^11C]ERGO radioligand. Two cohorts of age-matched mice (10-month-old, n=4, each), including 5XFAD and WT animals, were injected with a consistent amount of 14.8 MBq of [^11C]ERGO in 0.1 mL via the tail vein prior to acquiring dynamic imaging. […] In this work, we decided to run 20-min dynamic scans to test, as a proof-of-concept, whether the affinity of ERGO for radicals and/or metals, which are integrated in or very closely associated with Abeta aggregates, would trap the probe. […] The mean percent of ID/g in the brains of 5XFAD mice (n=4) were 0.81±0.09, 0.72±0.09, 0.72±0.10, 0.71±0.12, 0.72±0.08, 0.83±0.10 for cortex, hippocampus, striatum, thalamus, cerebellum and whole brain, respectively, whereas for WT mice (n=4), the values were 0.52±0.13, 0.47±0.18, 0.47±0.15, 0.42±0.18, 0.51±0.13, 0.55±0.14. […] 5XFAD brains are associated with high levels of GFAP and IBA1 expression. After PET/CT imaging, animals underwent through the cardiac perfusion process, and the brains were embedded in OCT solution for micro-sectioning. […] The hippocampal regions of 5XFAD mice, including the dentate gyrus (DG), Cornu ammonis (CA) and the surrounding regions are populated with astrocytes, which were detected and quantified by immunostaining using anti-GFAP antibody. […] Quantitatively, about 2-fold higher levels of this inflammatory marker is found in 5XFAD versus control mice (*p<0.05). In a similar observation, 5XFAD mouse brains have greater numbers of IBA1-positive activated microglia (arrows) compared to WT counterparts.
Dynamic PET imaging. The dynamic acquisition was divided into twelve 5 sec frames, four 60 sec frames, five 120 sec frames, three 5 min frames, and six 10 min scans. The data from all possible lines of response (LOR) were saved in the list mode raw data format. The raw data were then binned into 3D sinograms with a span of 3 and ring difference of 47. The images were reconstructed into transaxial slices (128×128×159) with voxel sizes of 0.0815×0.0815×0.0796 cm^3, using the MAP algorithm with 16 subsets, 4 iterations, and a beta of 0.0468. For anatomical co-registration, immediately following the PET scans, the mice received a CT scan in a NanoSPECT/CT (Mediso, Wash. D.C.) at an X-ray beam intensity of 90 mAs and x-ray peak voltage of 45 kVp. The CT images were reconstructed into 170×170×186 voxels at a voxel size of 0.4×0.4×0.4 mm^3. The PET/CT images were uploaded into Amide software (www.sourceforge.com), co-registered to an MRI template made in-house, and volumetric regions-of-interest were drawn around the cortex, hippocampus, striatum, thalamus, and cerebellum in addition to the whole brain. The PET images were normalized to the injected dose, and the time-activity-curves (TACs) of the mean activity within the ROIs were estimated for the entire duration of the scans.

[3] = Ex-vivo cut-and-count whole-body biodistribution of I.V.-injected [11C]ERGO in WT mice; parameters: species or system mouse; conditions: pharmacokinetic study

Compound | [11C]ERGO PET signal pertaining to oxidative stress in the brain (oxidative stress [1]) | reduction of IBA1-positive microglia (IBA1-positive microglia) [%] | mean percent of ID/g, cerebellum (oxidative stress [2]; 5XFAD mice) | mean percent of ID/g, cortex (oxidative stress [2]; 5XFAD mice) | mean percent of ID/g, hippocampus (oxidative stress [2]; 5XFAD mice) | mean percent of ID/g, striatum (oxidative stress [2]; 5XFAD mice) | mean percent of ID/g, thalamus (oxidative stress [2]; 5XFAD mice) | mean percent of ID/g, whole brain (oxidative stress [2]; 5XFAD mice) | mean percent of ID/g, cerebellum (oxidative stress [2]; WT mice) | mean percent of ID/g, cortex (oxidative stress [2]; WT mice) | mean percent of ID/g, hippocampus (oxidative stress [2]; WT mice) | mean percent of ID/g, striatum (oxidative stress [2]; WT mice) | mean percent of ID/g, thalamus (oxidative stress [2]; WT mice) | mean percent of ID/g, whole brain (oxidative stress [2]; WT mice) | time after injection at which the concentration in the serum started to decrease [3] [min]
C[N+](C)(C)[C@@H](Cc1c[nH]c(=S)[nH]1)C(=O)[O-] [ERGO, L-ergothioneine] | very modest reduction in PET signal | ~80 |  |  |  |  |  |  |  |  |  |  |  |  | 
C[N+](C)([11CH3])[C@@H](Cc1c[nH]c(=S)[nH]1)C(=O)[O-] [[^11C]ERGO] |  |  | 0.72±0.08% of ID/g | 0.81±0.09% of ID/g | 0.72±0.09% of ID/g | 0.72±0.10% of ID/g | 0.71±0.12% of ID/g | 0.83±0.10% of ID/g | 0.51±0.13% of ID/g | 0.52±0.13% of ID/g | 0.47±0.18% of ID/g | 0.47±0.15% of ID/g | 0.42±0.18% of ID/g | 0.55±0.14% of ID/g | 10
